Source: patent US20150111896A1, “HEMATOPOIETIC PROTECTION AGAINST CHEMOTHERAPEUTIC COMPOUNDS USING SELECTIVE CYCLIN-DEPENDENT KINASE 4/6 INHIBITORS” (The University of North Carolina at Chapel Hill, priority 2008, published 2015)
“Also recorded” adds a separate entry of the source. Like-named read-outs stand apart in the source and are kept apart here.

Tests used:
[1] = system: human melanoma cells lacking INK4a/ARF (WM2664); assay: γH2AX assay (DNA damage, flow cytometry); type: cell-based; conditions: 16 hours pretreatment; for protection from doxorubicin-, carboplatin- or etoposide-induced DNA damage (gamma-H2AX): then 8 hours Carbo, Etop or Dox
Excerpt: (§1) Reduction in DNA damage effected by the test compound or maintenance of cell viability effected by the test compound in cells treated with cytotoxic compounds can be assessed in any suitable manner. For example, DNA damage in cell populations can be assessed by performing a gamma-H2AX assay as described further herein below. Mammalian cells respond to agents that introduce DNA double-stranded breaks with the immediate and substantial phosphorylation of histone H2AX. Thus, detection of the phosphorylated H2AX, termed gamma-H2AX (γH2AX), using commercially available antibodies, can serve as a measure of DNA damage in cells.
(§2) Cells were cultured in DMEM+10% FBS.
(§3) γH2AX assay: For γH2AX assay, cells were treated with a dose response of PD332991 or 2BrIC for 24 hours. Cells were fixed, permeabilized, and stained with anti-γH2AX antibody as per γH2AX Flow Kit (Millipore, Billerica, Mass., United States of America). γH2AX levels were assessed by flow cytometry.

[2] = system: telomerized human diploid fibroblast (tHDF) cells (HS68); assay: γH2AX assay (DNA damage, flow cytometry); type: cell-based; conditions: 16 hours pretreatment, then 8 hours Carbo, Etop or Dox
Excerpt: as §1, §2, §3

[3] = system: human RB-null melanoma cells (A2058); assay: γH2AX assay (DNA damage, flow cytometry); type: cell-based; conditions: 16 hours pretreatment, then 8 hours Carbo, Etop or Dox
Excerpt: as §1, §2, §3

[4] = system: human melanoma cells lacking INK4a/ARF (WM2664); assay: Cell proliferation assay (WST-1 or CellTiter-Glo) after chemotherapeutic; conditions: for protection from chemotherapy-induced cytotoxicity (cell proliferation assays): WM2664 (CDK4/6-dependent), pretreatment prior to carboplatin, etoposide or doxorubicin
Protocol: (§7) In some embodiments, cell viability is assessed by performing a assay using 2-(4-iodophenyl)-3-(4-nitrophenyl)-5-(2,4-disulfophenyl)-2H-tetrazolium monosodium salt (WST-1), such as described further hereinbelow. In the WST-1 assay, WST-1 is cleaved by a mitochondrial reductase present in viable cells to form a colored product (i.e., formazan) that can be detected by measuring absorbance at a particular wavelength (e.g., 420-480 nm). […] The CellTiter-Glo® assay (CTG assay; Promega, Madison, Wis., United States of America) measures cell viability by measuring ATP concentration in cell lysate.
(§8) Cell lines: Telomerized human diploid fibroblast (tHDF) cells (HS68) were cultured in Dulbecco's Modified Eagle Medium (DMEM) +10% fetal bovine serum (FBS) with any additional compounds. The same conditions were used for A2058 and WM2664, human melanoma cell lines with known RB-pathway mutations: A2058 is RB-null, whereas WM2664 lacks INK4a/ARF. Thus, A2058 cells are CDK4/6-independent, while WM2664 cells are CDK4/6-dependent. Cells were cultured in DMEM+10% FBS.
(§9) Cell proliferation assays: Cell proliferation assays were performed by seeding 1×10^3 cells per well in a 96-well tissue culture plate in 100 μL of growth medium. Cells were treated as indicated with compound from Table 1 and doxorubicin, etoposide or carboplatin. Following treatment, cells were allowed to recover for 7 days in normal growth medium. At the end of the recovery period, cell number was quantified using the VVST-1 cell proliferation assay (TaKaRa Bio USA, Madison, Wis., United States of America) or the CellTiter-Glo® assay (CTG; Promega, Madison, Wis., United States of America). Data is presented as absorbance at 450 nm for the WST assays or Relative Light Units (RLU) for the CTG assays.

[5] = system: human RB-null melanoma cells (A2058); assay: as above; conditions: for protection from chemotherapy-induced cytotoxicity (cell proliferation assays): A2058 (CDK4/6-independent), pretreatment prior to carboplatin, etoposide or doxorubicin
Protocol: as §7, §8, §9

[6] = system: telomerized human diploid fibroblast (tHDF) cells (HS68); assay: as above; conditions: for chemoprotective effects against doxorubicin, carboplatin, etoposide (cell viability, CellTiter-Glo): 16 hour pretreatment, DOX 122 nM, Carbo 50 μM or Etop 2.5 μM 8 hours
Protocol: as §7, §8, §9

[7] = system: mice exposed to chemotherapeutic agents; assay: Myelosuppression assay: weekly complete blood counts; type: in vivo; conditions: 150 mg/kg oral gavage, Carbo 100 mg/kg i.p., blood on sixth day
Protocol: PD0332991: In the carboplatin experiments, mice were treated with a single dose of PD0332991 150 mg/kg oral gavage or vehicle control followed by carboplatin 100 mg/kg IP injection. In the doxorubicin experiments, mice were treated with a PD0332991 150 mg/kg by oral gavage or vehicle control one hour before doxorubicin 10 mg/kg by IP injection on day 0 and then repeated on day 7.
2BrIC: Mice were treated with a single dose of carboplatin 100 mg/kg by IP injection and two doses of 2BrIC 150mg/kg oral gavage or vehicle control. Mice were pretreated with 2BrIC two hours prior to carboplatin administration and then readministered a second dose of 2BrIC at the time of the carboplatin injection.
Baseline complete blood count (CBC) analysis were performed on a subset of mice prior to drug administration. Following drug administration (chemotherapy+/−indicated CDK4/6 inhibitor or control), mice were monitored weekly for the presence of myelosuppression by CBC analysis. CBC analysis was performed using BD Microtainer tubes with K2E (K2EDTA), 40 μL of blood was collected by tail vein nick. Blood was analyzed using a HESKA CBC-Diff Veterinary Hematology System. CBC analysis included measurement of white blood cells, lymphocytes, granulocytes, monocytes, hematocrit, red blood cells, hemoglobin, platelets, and other common hematological parameters.

[8] = system: human melanoma cells lacking INK4a/ARF (WM2664); assay: Cell cycle analysis (BrdU and propidium iodide, flow cytometry); type: cell-based; conditions: WM2664 (CDK4/6-dependent), 24 hours treatment
Protocol: as §2
(§4) Cell cycle analysis: Cell cycle analysis was performed using BrdU and propidium iodide (both from BD Biosciences Pharmigen, San Jose, Calif., United States of America) following the manufacturer's protocol. Cells were treated for 24 hours with a test compound at a desired dose prior to 15 minutes BrdU pulse, cell harvesting, fixation, staining, and analysis by flow cytometry.
(§5) Histograms of dose-response curves of PD332991 and 2BrIC in HS68, WM2664 and A2058 cells were analyzed using Mod-Fit™ software from Verity Software House (Topsham, Me., United States of America).

[9] = system: telomerized human diploid fibroblast (tHDF) cells (HS68); assay: as above; type: cell-based; conditions: HS68 (CDK4/6-dependent), 24 hours treatment
Protocol: as §2, §4, §5

[10] = system: hematopoietic stem and progenitor cells (HSPC); assay: In vivo pharmacodynamic assay (BrdU incorporation, Ki67) in bone marrow; design: species or system mice; conditions: two doses 300 mg/kg oral gavage, 2 hours prior to and at BrdU injection; relative to formulation alone; 300 mg/kg
Protocol: PD0332991: For HSPC proliferation experiments, mice received daily oral gavage with PD0332991 150 mg/kg for 2 days with 1 mg BrdU intraperitoneal injection (i.p.) every 6 hours for 24 hours prior to sacrifice.
2BrIC: For HSPC proliferation experiments, mice were treated with two doses of 2-bromo-12,13-dihydro-5H-indolo[2,3-a]pyrrolo[3,4-c]carbazole-5,7(6H)-dione (2BrIC) 300 mg/kg oral gavage or vehicle control. 2BrIC was solubilized for oral gavage using formulation #6 from the Hot Rod formulation kit (Pharmatek, Inc., San Diego, Calif., United States of America). 2BrIC was administered 2 hours prior to BrdU administration and readministered at the time of the BrdU 1 mg i.p. injection. After BrdU+/−2BrIC treatment for the indicated times, the mice were sacrificed and bone marrow harvested for immunophenotyping, and BrdU analysis.
Bone marrow (BM) was harvested from femurs of mice, pooled, and centrifuged to purify bone marrow mononuclear cells (BM-MNCs). Cells were then incubated for 5 minutes in ACK buffer to lyse red blood cells. All antibodies were from BD Pharmingen (San Jose, Calif., United States of America) unless otherwise indicated. Purified BM-MNCs were incubated with mouse lineage mixture biotin conjugated antibody, followed by streptavidin-FITC. Cells were then stained with Sca-1-PE-Cy7 and c-kit-APC-alexa750 antibodies. Cell viability was assessed using LIVE/DEAD Aqua Dead Cell Stain Kit (Invitrogen Corporation, Carlsbad, Calif., United States of America). For BrdU incorporation assay, the cells were fixed, permeablized, and stained with an APC BrdU Flow Kit according to the manufacturer's instruction. In all experiments, PE-Cy7, FITC, APC-alexa750, and the Aqua Dead cell stain isotype controls were included as appropriate. Flow cytometric analysis was performed using a CyAn ADP (Dako, Glostrup, Denmark). For each sample, a minimum of 500,000 cells was analyzed and the data were analyzed using FlowJo software (Tree Star, Ashland, Oreg., United States of America).

[11] = system: telomerized human diploid fibroblast (tHDF) cells (HS68)
Protocol: as §7, §8, §9

[12] = system: human RB-null melanoma cells (A2058); assay: Cell cycle analysis (BrdU and propidium iodide, flow cytometry); type: cell-based; conditions: A2058 (RB-null, CDK4/6-independent), 24 hours treatment
Protocol: as §2, §4, §5

HS68 cells = assay: TOXILIGHT assay (adenylate kinase release); type: cell-based, human; conditions: pretreatment, then Carbo 50 μM, DOX 122 nM or Etop 2.5 μM 8 hours
Protocol: (§6) Cellular cytotoxicity was assessed using the TOXILIGHT™ Bioassay kit (Lonza, Basel, Switzerland) which measures cytolysis by quantifying the release of adenylate kinase into the culture media. […] 100 μL of TOXILIGHT™ reagent is added and incubated for 5 minutes and read in a luminometer at 1 second/well.

[13] = system: RB-null human melanoma cells (A2058); assay: TOXILIGHT assay (adenylate kinase release); type: cell-based; conditions: 16 hours treatment, then Carbo 50 μM, DOX 122 nM or Etop 2.5 μM 8 hours
Protocol: as §6

[14] = system: human melanoma cells lacking INK4a/ARF (WM2664); assay: TOXILIGHT assay (adenylate kinase release); type: cell-based; conditions: 16 hours treatment, then Carbo 50 μM, DOX 122 nM or Etop 2.5 μM 8 hours
Protocol: as §6

## O=C1NC(=O)c2c1c1c3ccccc3[nH]c1c1[nH]c3cc(Br)ccc3c21 [Compound 2BrIC, 2-bromo-12,13-dihydro-5H-indolo[2,3-a]pyrrolo[3,4]-carbazole-5,6-dione]
[1]
  protection from doxorubicin-, carboplatin- or etoposide-induced DNA damage (gamma-H2AX): attenuated γH2AX staining
[1]; then 8 hours carboplatin
  protection from carboplatin-induced DNA damage (gamma-H2AX positive cells): ability
[1]; then 8 hours doxorubicin
  protection from doxorubicin-induced DNA damage (gamma-H2AX positive cells): ability
[1]; then 8 hours etoposide
  protection from etoposide-induced DNA damage (gamma-H2AX positive cells): ability
[2]
  protection from doxorubicin-, carboplatin- or etoposide-induced DNA damage (gamma-H2AX): attenuated γH2AX staining; also recorded: ability
[3]
  protection from doxorubicin-, carboplatin- or etoposide-induced DNA damage (gamma-H2AX): inability
[4]
  protection from chemotherapy-induced cytotoxicity (cell proliferation assays): significant protection
[5]
  protection from chemotherapy-induced cytotoxicity (cell proliferation assays): not
[5]; A2058, absorbance at 450 nm, 7 days recovery
  protection from doxorubicin-induced cytotoxicity (cell viability, WST-1 assay): inability
[6]; HS68 (CDK4/6-dependent), pretreatment prior to carboplatin, etoposide or doxorubicin
  protection from chemotherapy-induced cytotoxicity (cell proliferation assays): significant protection
[7]
  protection of blood cell counts from carboplatin: provides protection of red blood cells and hemoglobin
[8]
  cell cycle effect: strong, clean and reversible G1-arrest
[9]
  cell cycle effect: strong, clean and reversible G1-arrest
[10]
  incorporation of BrdU into Lin−Kit+Sca1+ cells (MPP): inhibited; also recorded: clearly reducing proliferation

## CCC(CO)Nc1nc(NCc2ccccc2)c2ncn(C(C)C)c2n1 (stereo not drawn) [Roscovitine]
[4]
  protection from chemotherapy-induced cytotoxicity (cell proliferation assays): failed to protect
[4]; WM2664, 16 hours pretreatment, DOX 122 nM 8 hours, viability after 7 days
  chemoprotective effects against doxorubicin (cell viability, CellTiter-Glo): absence of chemoprotective effects
[5]
  protection from chemotherapy-induced cytotoxicity (cell proliferation assays): failed to protect
[5]; A2058, 16 hours pretreatment, DOX 370 nM 8 hours, viability after 7 days
  chemoprotective effects against doxorubicin (cell viability, CellTiter-Glo): absence of chemoprotective effects
[6]; HS68, 16 hours pretreatment, DOX 370 nM 8 hours, viability after 7 days
  chemoprotective effects against doxorubicin (cell viability, CellTiter-Glo): absence of chemoprotective effects
[11]
  protection from chemotherapy-induced cytotoxicity (cell proliferation assays): failed to protect
[8]
  cell cycle effect: does not induce G1 arrest
[8]; listed as roscovitine
  cell cycle effect: did not induce a clean G1 arrest
[9]
  cell cycle effect: does not induce G1 arrest
[9]; listed as roscovitine
  cell cycle effect: did not induce a clean G1 arrest
[12]
  cell cycle effect: did not induce a clean G1 arrest

## CN[C@@H]1C[C@H]2O[C@@](C)([C@@H]1OC)n1c3ccccc3c3c4c(c5c6ccccc6n2c5c31)C(=O)NC4 [staurosporine]
[1]
  protection from doxorubicin-, carboplatin- or etoposide-induced DNA damage (gamma-H2AX): does not protect
[1]; listed as Staurosporine
  protection from doxorubicin-, carboplatin- or etoposide-induced DNA damage (gamma-H2AX): does not appear to protect
[2]
  protection from doxorubicin-, carboplatin- or etoposide-induced DNA damage (gamma-H2AX): does not protect
[2]; listed as Staurosporine
  protection from doxorubicin-, carboplatin- or etoposide-induced DNA damage (gamma-H2AX): does not appear to protect
[6]; HS68, viability after 7 days
  chemoprotective effects against doxorubicin, carboplatin, etoposide (cell viability, CellTiter-Glo): does not provide protection
[6]; HS68, viability after 7 days, listed as Staurosporine
  chemoprotective effects against doxorubicin, carboplatin, etoposide (cell viability, CellTiter-Glo): does not appear to protect
HS68 cells
  effect on chemotherapy-induced cytotoxicity (adenylate kinase release): enhances chemotherapy-induced cytotoxicity in a cyclin-dependent kinase 4/6 (CDK4/6)-independent manner
[9]
  cell cycle effect: substantially pure G1 arrest
[9]; listed as Staurosporine
  cell cycle effect: appears to induce G1 cell cycle arrest
[13]
  effect on chemotherapy-induced cytotoxicity (adenylate kinase release): enhances chemotherapy-induced cytotoxicity in a cyclin-dependent kinase 4/6 (CDK4/6)-independent manner
[14]
  effect on chemotherapy-induced cytotoxicity (adenylate kinase release): enhances chemotherapy-induced cytotoxicity in a cyclin-dependent kinase 4/6 (CDK4/6)-independent manner
